Literature values as cited in patent US20070248669A1, “Oral sustained release formulation” (priority 2006, published 2007).
Counter-ions that a name gives are not always drawn.

Tests used:
[1] = daily multiple dosing regimen, patients under treatment
[2] = compressed tablets, therapeutic dosing

COc1ccc(C(CN(C)C)C2(O)CCCCC2)cc1 (stereo not drawn) [venlafaxine hydrochloride, 1-[2-(dimethylamino)-1-(4-methoxyphenyl)-ethyl]cyclohexanol]
patients experiencing nausea [1]: about forty five
patients with vomiting [1]: about seventeen
time after administration until normal plasma levels are approached [2]: about twelve
